From ChEMBL document CHEMBL1201862, “PubChem BioAssay data set” (2004)
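1) Cells in 96-well plates. 2) Compound, 48 h, 5 concentrations. 3) Linear interpolation between surrounding doses. 4) Unreached endpoint = highest concentration. GI50 = concentration required for 50% inhibition of growth.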 Calls of active or inactive are those of the source. Rule as the data show it: active = GI50 up to about 1.1 µM and inactive = higher.

Key:
Test in all cases: NCI-60 cell line screen, 48 h
UACC-257 = system: UACC-257
LXFL 529 = system: LXFL 529
SF-268 = system: SF-268
HT-29 = system: HT-29
M19-MEL = system: M19-MEL
SNB-19 = system: SNB-19
SW-620 = system: SW-620
HCT-15 = system: HCT-15
HOP-92 = system: HOP-92
SR = system: SR
Malme-3M = system: Malme-3M
CAKI-1 = system: CAKI-1
HCT-116 = system: HCT-116
A549 = system: A549
SN12C = system: SN12C
K562 = system: K562
ACHN = system: ACHN
HL-60 = system: HL-60

SMILES | GI50 (UACC-257) | GI50 (LXFL 529) | GI50 (SF-268) | GI50 (HT-29) | GI50 (M19-MEL) | GI50 (SNB-19) | GI50 (SW-620) | GI50 (HCT-15) | GI50 (HOP-92) | GI50 (SR) | GI50 (Malme-3M) | GI50 (CAKI-1) | GI50 (HCT-116) | GI50 (A549) | GI50 (SN12C) | GI50 (K562) | GI50 (ACHN) | GI50 (HL-60)
CCCCCC(=O)N[C@H]1CCc2cc(OC)c(OC)c(OC)c2-c2ccc(SC)c(=O)cc21 | < 0.01 µM (active) | 0.0204 µM (active) | 0.0212 µM (active) | 0.0233 µM (active) | 0.0229 µM (active) | 0.0258 µM (active) | 0.0177 µM (active) | 0.0209 µM | < 0.01 µM (active) | 0.00421 µM (active) | 0.0106 µM (active) | 0.0914 µM (active) | 0.02 µM (active) | 0.0306 µM (active) | 0.0315 µM (active) | < 0.01 µM (active) | 0.0374 µM (active) | < 0.01 µM (active)
CN1C(OCc2ccccc2)c2c(ccc3c2OCO3)C2C=Cc3cc4c(cc3C21)OCO4 (centres undefined) | 1.37 µM (inactive) | 0.371 µM (active) | 0.475 µM (active) | 0.375 µM (active) | 0.19 µM (active) | 1.69 µM (inactive) | 0.38 µM (active) | 0.597 µM | 1.08 µM (active) | 0.237 µM (active) | 1.26 µM (inactive) | 1.03 µM (active) | 0.398 µM (active) | 1.49 µM (inactive) | 1.32 µM (inactive) | 0.611 µM (active) | 1.51 µM (inactive) | 0.226 µM (active)
COc1ccc(C2S/C(=C\c3ccc(OC)cc3OC)C(=O)N2NC(=O)Cc2ccccc2)cc1 (centres undefined) | > 100 µM (inactive) | > 100 µM (inactive) | > 100 µM (inactive) | > 100 µM (inactive) | > 100 µM (inactive) | – | > 100 µM (inactive) | > 100 µM | > 100 µM (inactive) | > 100 µM (inactive) | > 100 µM (inactive) | > 100 µM (inactive) | > 100 µM (inactive) | > 100 µM (inactive) | > 100 µM (inactive) | 98.9 µM (inactive) | > 100 µM (inactive) | 97.9 µM (inactive)
COc1ccccc1NC(=O)CC(=O)N1N=C(C)C(/N=N/c2ccc(S(N)(=O)=O)cc2)C1=O (centres undefined) | > 100 µM (inactive) | > 100 µM (inactive) | > 100 µM (inactive) | > 100 µM (inactive) | > 100 µM (inactive) | > 100 µM (inactive) | > 100 µM (inactive) | > 100 µM | > 100 µM (inactive) | > 100 µM (inactive) | > 100 µM (inactive) | > 100 µM (inactive) | > 100 µM (inactive) | > 100 µM (inactive) | > 100 µM (inactive) | – | > 100 µM (inactive) | –
O=C(/C=C/c1ccccc1O)c1ccccc1Cl | > 100 µM (inactive) | 30.5 µM (inactive) | 44.5 µM (inactive) | > 100 µM (inactive) | 64.6 µM (inactive) | 45.1 µM (inactive) | 35.5 µM (inactive) | 28.6 µM | 28.8 µM (inactive) | 27.7 µM (inactive) | > 100 µM (inactive) | 49.8 µM (inactive) | 48.6 µM (inactive) | > 100 µM (inactive) | 56.4 µM (inactive) | 23.4 µM (inactive) | 51.5 µM (inactive) | 15.3 µM (inactive)
CN(C)CCONC(=O)C12CC3CC(CC(C3)C1)C2 | > 100 µM (inactive) | > 100 µM (inactive) | > 100 µM (inactive) | > 100 µM (inactive) | > 100 µM (inactive) | > 100 µM (inactive) | – | > 100 µM | > 100 µM (inactive) | > 100 µM (inactive) | 0.02 µM (active) | > 100 µM (inactive) | > 100 µM (inactive) | > 100 µM (inactive) | > 100 µM (inactive) | > 100 µM (inactive) | > 100 µM (inactive) | > 100 µM (inactive)
O=C(NC(=O)c1cn(CCNCCO)c(=O)[nH]c1=O)OCc1ccccc1 | – | > 100 µM (inactive) | > 100 µM (inactive) | > 100 µM (inactive) | > 100 µM (inactive) | – | > 100 µM (inactive) | > 100 µM | > 100 µM (inactive) | > 100 µM (inactive) | > 100 µM (inactive) | > 100 µM (inactive) | > 100 µM (inactive) | > 100 µM (inactive) | > 100 µM (inactive) | > 100 µM (inactive) | > 100 µM (inactive) | > 100 µM (inactive)
CCc1cccc(C(C)CC)c1/N=C(/NC(=O)c1ccccc1C(=O)N/C(=N/c1c(CC)cccc1C(C)CC)SC)SC (centres undefined) | 54.3 µM (inactive) | 39.9 µM (inactive) | 72.3 µM (inactive) | 40.4 µM (inactive) | 51.4 µM (inactive) | 49.8 µM (inactive) | 31.9 µM (inactive) | 40.1 µM | 10.5 µM (inactive) | 39.6 µM (inactive) | 48.5 µM (inactive) | 42.2 µM (inactive) | 34.4 µM (inactive) | 47.3 µM (inactive) | 40.1 µM (inactive) | 27.7 µM (inactive) | 36.1 µM (inactive) | 20.9 µM (inactive)
Clc1ccc(OCc2nnc3n2N=C(c2ccc(Br)cc2)CS3)cc1 | 23.1 µM (inactive) | 15.2 µM (inactive) | – | 36.2 µM (inactive) | 23.6 µM (inactive) | 23.7 µM (inactive) | 32.7 µM (inactive) | 51.3 µM | 11.2 µM (inactive) | > 100 µM (inactive) | 28 µM (inactive) | > 10 µM (inactive) | 22.6 µM (inactive) | 25.5 µM (inactive) | 52.8 µM (inactive) | > 100 µM (inactive) | 23.2 µM (inactive) | > 100 µM (inactive)
O=C1c2c(c(-c3ccccc3)c(-c3ccccc3)c(-c3ccccc3)c2-c2ccccc2)C(=O)N1c1cccc(Br)c1 | > 100 µM (inactive) | > 100 µM (inactive) | > 100 µM (inactive) | – | > 100 µM (inactive) | > 100 µM (inactive) | > 100 µM (inactive) | > 100 µM | > 100 µM (inactive) | > 100 µM (inactive) | > 100 µM (inactive) | > 100 µM (inactive) | > 100 µM (inactive) | > 100 µM (inactive) | > 100 µM (inactive) | > 100 µM (inactive) | – | > 100 µM (inactive)
C=CCO[C@H]1CC[C@@]2(C)C(CC[C@]3(C)C2CC=C2[C@@H]4[C@@H](C)C(C)CC[C@]4(C(=O)O)CCC23C)C1(C)C (some centres undefined) | 16.9 µM (inactive) | 12.6 µM (inactive) | 19.2 µM (inactive) | 16.3 µM (inactive) | 17.7 µM (inactive) | 17.1 µM (inactive) | 18.5 µM (inactive) | – | 16.3 µM (inactive) | 13.8 µM (inactive) | 19.5 µM (inactive) | 17.9 µM (inactive) | 12.7 µM (inactive) | 16.4 µM (inactive) | 13.6 µM (inactive) | 14.3 µM (inactive) | 15.4 µM (inactive) | 7.01 µM (inactive)
COC(=O)CCC(NC(=S)N/N=C(\C)c1ccccn1)C(=O)OC (centres undefined) | 97.5 µM (inactive) | 40.4 µM (inactive) | 52.1 µM (inactive) | > 100 µM (inactive) | 37.2 µM (inactive) | > 100 µM (inactive) | 55.3 µM (inactive) | 40.9 µM | 41.7 µM (inactive) | > 10 µM (inactive) | 45.4 µM (inactive) | – | 60.8 µM (inactive) | 66.8 µM (inactive) | 89.1 µM (inactive) | 53.7 µM (inactive) | 28.5 µM (inactive) | 18.5 µM (inactive)
COc1ccc(OC(=O)CC2Cc3cc(OC)c(OC)c(OC)c3-c3ccc(SC)c(=O)cc32)cc1 (centres undefined) | 0.273 µM (active) | 0.217 µM (active) | 2.74 µM (inactive) | 0.342 µM (active) | 5.74 µM (inactive) | 0.12 µM (active) | 0.0783 µM (active) | 0.467 µM | 0.467 µM (active) | 0.463 µM (active) | 0.383 µM (active) | – | 0.156 µM (active) | 0.762 µM (active) | 0.3 µM (active) | 0.0805 µM (active) | 0.792 µM (active) | 0.0893 µM (active)
CCOc1ccccc1NC(=O)C(C#N)C1=C(Cl)C(=O)c2ccccc2C1=O (centres undefined) | 1.06 µM (active) | 1.85 µM (inactive) | 2.11 µM (inactive) | 2.29 µM (inactive) | 0.177 µM (active) | 2.13 µM (inactive) | 1.78 µM (inactive) | 1.47 µM | 2.05 µM (inactive) | 1.33 µM (inactive) | 1.57 µM (inactive) | 2.76 µM (inactive) | 1.95 µM (inactive) | 1.95 µM (inactive) | 1.79 µM (inactive) | 1.58 µM (inactive) | 1.79 µM (inactive) | 0.486 µM (active)
CCOc1ccccc1NC(=O)C(=O)c1c(O)c2ccc(O)cc2oc1=O | > 100 µM (inactive) | > 100 µM (inactive) | > 100 µM (inactive) | > 100 µM (inactive) | > 100 µM (inactive) | > 100 µM (inactive) | > 100 µM (inactive) | > 100 µM | – | > 100 µM (inactive) | > 100 µM (inactive) | > 100 µM (inactive) | > 100 µM (inactive) | > 100 µM (inactive) | > 100 µM (inactive) | > 100 µM (inactive) | > 100 µM (inactive) | > 100 µM (inactive)
CCCC(C)n1c(C)nc2c1C(=O)c1ccccc1C2=O (centres undefined) | 22.4 µM (inactive) | 12.7 µM (inactive) | 19.6 µM (inactive) | 17.3 µM (inactive) | 12.6 µM (inactive) | 37 µM (inactive) | 37.7 µM (inactive) | 5.97 µM | 16.7 µM (inactive) | > 100 µM (inactive) | 23.8 µM (inactive) | – | 5.52 µM (inactive) | 21 µM (inactive) | 29.9 µM (inactive) | 8.57 µM (inactive) | 27.8 µM (inactive) | 33.2 µM (inactive)
